Reference: publication PMC4583814 (Nature neuroscience, 2015)

How the values were obtained:
Test in all cases: CRE-luciferase
Format in all cases: cell-based
Olfr57 = molecular target: T1, Olfr57 (Mus musculus, UniProt Q8VGU7); settings: Hana3A cells, 4 h, 37°C; agonist
T1 sequence (Q8VGU7 1-319): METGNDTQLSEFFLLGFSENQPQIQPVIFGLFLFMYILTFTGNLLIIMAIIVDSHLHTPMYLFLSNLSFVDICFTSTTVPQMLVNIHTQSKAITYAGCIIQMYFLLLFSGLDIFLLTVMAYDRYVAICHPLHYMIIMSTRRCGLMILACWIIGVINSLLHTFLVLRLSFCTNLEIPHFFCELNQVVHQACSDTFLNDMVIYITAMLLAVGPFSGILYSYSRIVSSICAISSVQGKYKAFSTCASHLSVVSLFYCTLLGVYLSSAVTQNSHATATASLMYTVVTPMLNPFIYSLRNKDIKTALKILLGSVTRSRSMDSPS

Olfr376 = molecular target: T2, Olfr376 (Mus musculus, UniProt Q8VGI2); settings: Hana3A cells, 4 h, 37°C; agonist
T2 sequence (Q8VGI2 1-317): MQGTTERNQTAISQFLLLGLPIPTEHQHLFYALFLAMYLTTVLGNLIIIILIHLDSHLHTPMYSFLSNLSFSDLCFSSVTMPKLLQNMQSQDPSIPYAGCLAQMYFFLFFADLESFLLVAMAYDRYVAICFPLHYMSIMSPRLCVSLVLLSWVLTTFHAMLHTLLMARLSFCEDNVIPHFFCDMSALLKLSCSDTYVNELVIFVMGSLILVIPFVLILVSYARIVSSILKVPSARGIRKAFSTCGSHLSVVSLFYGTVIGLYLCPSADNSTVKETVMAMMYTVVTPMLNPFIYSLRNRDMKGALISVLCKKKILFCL

Olfr20 = molecular target: T3, Olfr20 (Mus musculus, UniProt Q7TRX9); settings: Hana3A cells, 4 h, 37°C; agonist
T3 sequence (Q7TRX9 1-314): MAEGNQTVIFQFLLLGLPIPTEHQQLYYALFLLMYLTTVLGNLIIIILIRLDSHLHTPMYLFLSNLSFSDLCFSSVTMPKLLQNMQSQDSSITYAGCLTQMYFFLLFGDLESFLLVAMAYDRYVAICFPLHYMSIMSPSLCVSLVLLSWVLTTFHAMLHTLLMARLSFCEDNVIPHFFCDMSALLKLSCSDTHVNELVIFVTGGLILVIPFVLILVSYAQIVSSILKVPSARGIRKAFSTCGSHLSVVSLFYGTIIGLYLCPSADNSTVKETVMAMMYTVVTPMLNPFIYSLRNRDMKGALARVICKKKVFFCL

Olfr491 = molecular target: T4, Olfr491 (Mus musculus, UniProt Q8VG06); settings: Hana3A cells, 4 h, 37°C; agonist
T4 sequence (Q8VG06 1-310): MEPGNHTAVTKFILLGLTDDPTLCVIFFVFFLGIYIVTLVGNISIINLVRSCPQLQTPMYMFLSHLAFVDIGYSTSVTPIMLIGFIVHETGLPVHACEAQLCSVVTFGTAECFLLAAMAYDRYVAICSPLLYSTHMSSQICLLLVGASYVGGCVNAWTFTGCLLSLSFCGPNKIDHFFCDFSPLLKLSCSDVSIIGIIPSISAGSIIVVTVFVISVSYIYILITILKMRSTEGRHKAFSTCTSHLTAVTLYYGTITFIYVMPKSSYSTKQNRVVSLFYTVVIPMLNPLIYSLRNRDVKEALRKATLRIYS

Olfr19 = molecular target: T5, Olfr19 (Mus musculus, UniProt Q9JHB2); settings: Hana3A cells, 10^–9 – 10^–3 M, 4 h, 37°C; agonist
T5 sequence (Q9JHB2 1-309): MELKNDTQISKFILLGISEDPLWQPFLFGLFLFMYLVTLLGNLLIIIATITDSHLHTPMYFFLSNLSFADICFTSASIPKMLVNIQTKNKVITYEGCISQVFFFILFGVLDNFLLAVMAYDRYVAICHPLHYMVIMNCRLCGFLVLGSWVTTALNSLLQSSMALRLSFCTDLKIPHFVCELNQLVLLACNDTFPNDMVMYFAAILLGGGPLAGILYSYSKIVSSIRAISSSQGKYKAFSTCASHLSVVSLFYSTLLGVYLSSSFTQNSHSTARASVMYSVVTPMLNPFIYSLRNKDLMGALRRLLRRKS

SMILES | CRE-luciferase (Dual-Glo) reporter (Olfr57) | CRE-luciferase (Dual-Glo) reporter (Olfr376) | CRE-luciferase (Dual-Glo) reporter (Olfr20) | CRE-luciferase (Dual-Glo) reporter (Olfr491) | EC50 (Olfr19)
CC1=NC(C)SC1C (centres unmarked) [2,5–dihydro–2,4,5–trimethylthiazoline] | Five of these TMT ORs (Olfr20, Olfr30, Olfr57, Olfr376, Olfr491) | Five of these TMT ORs (Olfr20, Olfr30, Olfr57, Olfr376, Olfr491) | Five of these TMT ORs (Olfr20, Olfr30, Olfr57, Olfr376, Olfr491) | Five of these TMT ORs (Olfr20, Olfr30, Olfr57, Olfr376, Olfr491) | 
CC(=O)c1ccccc1 [acetophenone] |  |  |  |  | a newly identified acetophenone OR, Olfr19
